Data published in a melting point compilation (Tetko et al.; mined from patent text by program, amines drawn as free bases though some values may be those of a salt).

melting point [°C]	Compound
110 to 115	N#CCOc1ccc(CCNC(=O)OCc2ccccc2)cc1
227 to 229	FC(F)(F)c1ccc(Sc2nc(-c3ccccc3)c(-c3ccccc3)[nH]2)cc1
261	CC(C)(C)NS(=O)(=O)c1cnc(-c2cn(-c3nc(-c4ccc(Cl)cc4)cc(C(F)(F)F)n3)cn2)s1
115 to 116	FC(F)C(F)(F)Oc1cccc(Nc2nccc(-c3cccs3)n2)c1
133 to 135	CCOC(=O)Cc1c2cc(F)ccc2n2c(-c3ccc(S(C)=O)cc3)nccc12 (centres undefined)
120 to 122	OC(Cc1ccccc1)c1nc(-c2ccncc2)cs1 (centres undefined)
163 to 166	CCOC(=O)c1cc(NC(=O)c2ccccc2OC(C)=O)cc(Cl)c1O
171 to 172	CCOC(=O)c1cccc(NC(=O)c2cc(-c3ccc(F)cc3)oc2C)c1
166 to 167	CCc1nn2c(Cl)cc(Cl)nc2c1S(=O)(=O)c1ccccc1
184 to 185	Cc1oc(-c2ccccc2)nc1CCC(=O)c1ccc(CCCC2OC(=O)NC2=O)cc1 (centres undefined)
155 to 175	O=C(O)C=C1c2ccccc2CCc2cc(Cl)ccc21
83 to 84	Cc1ccc(Sc2ccccc2)c(CC(=O)O)c1
108 to 110	O=C1CSCC(=O)C1C(=O)Nc1ccc(Cl)c(C(F)(F)F)c1
112 to 117	Cc1cccc2c1nc(-c1c(F)cccc1F)n2Cc1ccccc1
194 to 196	Cc1cc(Cn2c(-c3ccccc3)nc(Cl)c2CC#N)ccc1O
140 to 141	O=C(CCC(=O)c1cccs1)Nc1cccc2cc(-c3nccs3)[nH]c12
95 to 97	O=C(O)CC(CCCCNS(=O)(=O)c1ccc(Cl)cc1)CCCc1cccnc1 (centres undefined)
141	COc1ccc(S(=O)(=O)N(CC(N)=O)c2ccc(C)cc2Cc2ccccc2Cl)cc1OC
285 to 287	Cn1cc(C2=C(c3c4n(c5ccccc35)CCC(N=C=S)C4)C(=O)NC2=O)c2ccccc21 (centres undefined)
262 to 263	CCOC(=O)CCn1c(=O)c(=O)[nH]c2cc(C(F)(F)F)c(N)cc21
159 to 160	CN(C(=O)c1ccc(Cl)c(Cl)c1)c1ccc(Cl)cc1CCC(=O)O

melting point [°C]	Compound
126 to 128	CN1CC(C(=O)N(C)Cc2ccc(C(F)(F)F)cc2)=C(O)C1=O
180 to 182	CCOC(=O)C1=Cc2cc(Cl)cnc2NC1C(F)(F)F (centres undefined)
157	O=[N+]([O-])c1cc(Cl)c(Oc2cc(Cl)c(Br)cc2Cl)cc1NCc1ccccc1
89	O=S(=O)(Cc1cccc2ccccc12)c1ccccc1
39 to 40	COc1ccc(CN2CCC3(CCc4c3n(C)c3ccccc43)CC2)cc1
186 to 187	CC(=NOCCOc1ccc(CC2SC(=O)N(C(c3ccccc3)(c3ccccc3)c3ccccc3)C2=O)cc1)c1ccc(-c2ccccc2)nc1 (centres undefined)
143 to 144	COc1ccc(OCCCc2cn(-c3ccc(C(F)(F)F)cn3)nc2C(C)C)c(CC(=O)O)c1
279 to 280	O=C(Nc1cnc2c(c1)nc1n2CCC1O)c1cc2cc(C(F)(F)F)cnc2n1Cc1cccc(F)c1 (single isomer, unassigned; (-))
61 to 62	CC(C)(C)OC(=O)Nc1ccc(F)cc1C(F)(F)F
142 to 143	CC1=C(c2ccncc2)SC(OC(=O)c2cccc(Cl)c2)C(=O)N1 (centres undefined)
140 to 145	CN(C)CCNc1cc(Cl)nc(-c2ccccc2)n1
57 to 59	CC(Oc1ccc(-c2cc(C(F)(F)F)cc(S(N)(=O)=O)c2)cc1)C(O)CCc1cccnc1 (centres undefined)
211 to 212	Cc1ncc2c(n1)-c1ccccc1N(C(=O)c1ccc([N+](=O)[O-])cc1)CC2
88 to 90	CC(C)(C)CNc1nc(C(=O)C(=O)c2ccccc2)ccc1[N+](=O)[O-]
155 to 156	COc1ccc(CC(=O)NCCc2ccc3[nH]cc(CC#N)c3c2)cc1
185 to 186	CC(=O)Oc1cc2ccccc2cc1C(=O)O
154 to 155	Cc1oc(-c2ccccc2)nc1COc1ccc(CCCC2SC(=O)NC2=O)cc1C(F)(F)F (centres undefined)
200 to 202	Cc1cc(C(=O)Nc2ccc3cc(CN4CCCC4)cnc3c2C)ccc1-c1ccc(F)cc1
99.8	CCCCOc1nc2ccnn2c2ncccc12
241 to 242	O=C1Nc2ccc(Br)cc2C2(c3ccccn3)OCCN12 (centres undefined)
136 to 137	O=c1c(CCCc2ccncc2)cc2cccnc2n1-c1ccc(Cl)c([N+](=O)[O-])c1

Second part, the molecule before the results:

Compound	melting point [°C]
CC1(C)Oc2cc([N+](=O)[O-])sc2C(N2CCCC2=O)C1O (centres undefined)	214 to 217
CCCn1cnc2ncnn2c1=S	168 to 169
CC1(C)Oc2ccc(C=O)cc2C(N2CCCC2=O)C1O (centres undefined)	196 to 198
CN(C)C(C#N)C1(c2ccc(Cl)cc2)CCC1 (centres undefined)	90 to 91
CCOC(=O)C(C)(C)Cc1cccnc1	64 to 66
CC(=O)c1ccc(Oc2ccc(S(=O)(=O)C3CCCCC3)cn2)cc1	116 to 118
CSc1ccc2c(=O)c(SC)cn(C)c2c1	154 to 155
CSc1ccc(N)c(C(=O)NN)c1	124 to 127
C=C(COc1cc(Cl)ccc1C=NNP(=O)(OCC)OCC)C(C)C	103 to 106
COc1cn(C(C)=O)c2ccc(F)cc12	124 to 125
C#CCOC(=O)c1ccccc1C1=NC(=O)C(C)(C(C)C)N1 (centres undefined)	131 to 144
CCOCc1nc2c(N)nc3ccccc3c2n1CC1(OCCS(C)(=O)=O)CCCCC1	159 to 161
Cc1cc(C)cc(-c2cn(C(C)C)c3ccccc23)c1	60 to 62
CC1(C)CN=C2C(=O)c3cc(C#N)ccc3N2C1	178 to 184
N=C(N)Nc1cc(C(=O)O)ccc1N1C(=O)CCC1CO (centres undefined)	253 to 257
COc1ccc(C(=O)C=Cc2cc(Br)ccc2O)cc1	177 to 179
CCNC1CC=C(c2c[nH]c3ccc([N+](=O)[O-])cc23)CC1 (centres undefined)	177 to 179
O=Cc1cc([N+](=O)[O-])ccc1OC/C=C/CCl	65 to 66
CN(C)CCOCC1=Nc2cc(Cl)ccc2S(=O)(=O)N1	219 to 221
CNS(=O)(=O)Cc1ccc2[nH]cc(C3CCN(C)C3)c2c1 (centres undefined)	160 to 162
COc1ccc(C=C(Br)Br)cc1OC(C)C	67 to 69

Compound	melting point [°C]
Nc1cc2c(cc1Cl)C(=O)C1(CC1)O2	201
COC(=O)N[C@@H](Cc1ccccc1)[C@H](O)CCl	163 to 164
COC(=O)/C=C(\C)CSc1nc(N)cc(Cl)n1	134 to 136
CCC(CO)Nc1c(-c2c(F)cc(F)cc2F)c(Cl)nc2ncnn12 (centres undefined)	76 to 77
Cc1ccc(-c2cccc(C#N)c2)cc1	59 to 61
COc1ccc(N2CCOCC2)c2sc(NC(=O)N(C)C3CCCC3)nc12	110 to 125
C=Cc1nc(C(C)C)c(Sc2cc(Cl)cc(Cl)c2)n1C	124 to 125
CC(C)(C)OC(=O)N(C[C@H](O)COc1ccc(O)cc1)C1CNC1	130 to 134
CCOC(=O)C1C(OC)C(=O)N1c1ccc(OC)cc1 (centres undefined)	116 to 118
O=C(Nc1cccc(S(=O)(=O)N2CCCC2)c1)c1cnn2c(C(F)F)cc(-c3ccc(Cl)c(Cl)c3)nc12	245
CC(C)(C)C1(COc2ccc(Cl)cc2)OS(=O)NC1=O (centres undefined)	132 to 134
O=C(O)c1n[nH]c2cc(F)ccc12	> 290
Cc1cc(NC(=O)N(CC(C)C)CC(C)C)cc(C)c1S(=O)(=O)C[N+](=O)[O-]	153 to 155
COC(=O)C1=C(C)NN=C(C(=O)OC(C)C)C1c1ccccc1Cl (centres undefined)	166
COc1ccc(-n2nc(Cl)cc2-c2ccc(OCCNC(N)=O)cc2)cn1	156 to 158
Cc1nn(C(C)(C)C)c(N)c1C(N)=O	195 to 196
CSC(=S)OCc1cn(-c2ccc(N3CCOCC3)c(F)c2)nn1	118
CC(O)CNc1c([N+](=O)[O-])cnc2ccccc12 (centres undefined)	209 to 210
NC1CCN(c2cccc(Cl)n2)CC1	36 to 38
CC(=O)NN=Cc1ccc2ccccc2n1	218 to 219
CN1CCc2c([nH]c3ccc(NS(=O)(=O)c4ccc(N)cc4)cc23)C1	236 to 237

Compound	melting point [°C]
CCC1(C)CC2(NC(=O)N(Cc3ccc(CN4C(=O)NC5(CC(C)(CC)NC(C)(CC)C5C)C4=O)cc3)C2=O)C(C)C(C)(CC)N1 (centres undefined)	272 to 274
CC(C)(C)n1nnc(Cc2ccc(CBr)cc2)n1	73 to 74
c1cc(C2OCCO2)ccc1C1OCCO1	86 to 89
CS(=O)(=O)c1ccc(C2=C(c3ccc(F)cc3)CC3(CCCC3)C2)cc1	142 to 143
O=C1NN(c2ccccc2)CC1CN1CCOCC1 (centres undefined)	143 to 144
CCOC(=O)c1nc2cccc(F)c2nc1C	87 to 89
C=CCc1c(Cl)nc(NC=O)nc1Cl	85 to 86
CNCC(O)C1=CC2(CCCC2)c2ccccc21 (centres undefined)	75 to 77
Oc1ccc2ccc(F)c(F)c2c1F	91
CCNc1cccnc1N1CCN(C(=O)c2ccc(C(=O)NCCO)cn2)CC1	178 to 180
CC(C)(C)c1ccc(-c2cccc(-c3ccc(C(C)(C)C)cc3)c2N)cc1	106
N#CC1C(=O)NC(=O)C(C(=O)O)C12CCCCC2 (centres undefined)	210 to 214
Cc1cc(C#N)cc(C)c1OCCCCCc1cc(CO)no1	63 to 64
CC(C)(C)C1=C(c2ccc(C(=O)N3CCOCC3)c(O)c2)OCC1(C)C	141 to 142
O=C(c1ccc(O)cc1)N1CCN(CC(O)Cn2c3ccccc3c3ccccc32)CC1 (centres undefined)	184
COc1cnc2[nH]cc(/C=C3\N=C(NCC4CC4)NC3=O)c2c1	280 to 286
OC(CNc1ncnc2nc[nH]c12)CN1CCN(C(c2ccc(F)cc2)c2ccc(F)cc2)CC1 (centres undefined)	140 to 170
C/C=C/c1ccc2nc(Cl)c(S(N)(=O)=O)n2n1	225 to 229
COc1ccc(S(=O)O)c(OC)c1	89 to 91
CCCCn1c(C=O)cnc1Cc1c(F)cccc1Cl	88 to 90
